Where two headings read alike, the source gives them in different places.
Legend:
[1] = tested on: patients with long episodes of either paroxysmal or persistent AFib; experiment: Duration of AFib episodes under incremental b.i.d. doses of budiodarone (pacemaker monitoring); type: in vivo; details: for Average Episode duration: baseline 4.8 hrs
Experimental: (§1) In this example, patients were selected with long episodes of either paroxysmal or persistent AFib. Each of the patients was implanted with a pacemaker which monitored their heart rhythm. Patients were then evaluated for disease progression by monitoring their heart rhythm without budiodarone treatment in order to generate a baseline level of the duration of episodes of AFib. The baseline data was collected over two weeks. Patients were then given incremental doses of budiodarone at 200 mg b.i.d; 400 mg b.i.d.; 600 mg b.i.d.; and 800 mg b.i.d. where each dose was maintained for 2 weeks for a total of 4 treatment periods. A two-week washout period was employed after the completion of the 800 mg b.i.d. treatment period, wherein a washout period is the time after the last treatment to avoid misinterpreting observations about study-related treatments that may have been due to prior therapies. Pacemaker data were downloaded on days 8 and 14 of each two-week cycle and averages for each test period are shown. Blood was collected during each cycle and tested for the concentration of budiodarone.

[2] = Trough plasma concentration of budiodarone during b.i.d. dosing cycles and washout; type: in vivo, patients
Experimental: (§2) It is noted that budiodarone concentrations used in the examples below include both the free acid and the free base versions of budiodarone.
as §1

[3] = Budiodarone concentrations in plasma over time after different single doses (FIG. 1); type: in vivo, patients
Experimental: as §2
In this example, plasma concentrations of budiodarone were evaluated using different single-dosing amounts of the drug. […] The resulting data was placed on a graph and the data for each concentration provided for both a Cmax for the dose employed as well as a trough value at 6 hours.

[4] = Impact of food on plasma budiodarone concentration, fasting versus fed (FIG. 2); type: in vivo, patients
Experimental: This example evaluates the impact on plasma budiodarone concentrations based on a fasting or fed patient. In this example, patients were either fasting or fed before the administration of budiodarone. After budiodarone administration, blood was collected from the patients, and the plasma concentration of budiodarone was determined. FIG. 2 illustrates that in the same dosing of budiodarone, the uptake of budiodarone increased as evidenced by the Cmax values.

[5] = cited from earlier work

Question: What does the source list for `CC[C@H](C)OC(=O)Cc1oc2ccccc2c1C(=O)c1cc(I)c(OCCN(CC)CC)c(I)c1` [budiodarone, (S)-sec-butyl2-(3-(4-(2-(diethylamino)ethoxy)-3,5-diiodobenzoyl)benzofuran-2-yl)acetate]?
Answer: Average Episode duration ([1]; 200 mg bid for 2 weeks, average of pacemaker downloads on days 8 and 14): 1.7 h; Average Episode duration ([1]; 400 mg bid for 2 weeks): 0.6 h; longest average duration of AFib ([1]; 600 mg b.i.d.): 6 min; Average Episode duration ([1]; 600 mg bid for 2 weeks): 0.1 h; Average Episode duration ([1]; 800 mg bid for 2 weeks): 0.5 h; maximum duration AFib levels ([1]; all dosing levels from 400 mg b.i.d. to 800 mg b.i.d.): less than 45 minutes; Average Episode duration ([1]; two-week washout after 800 mg bid): 2.4; Trough Pk levels ng/ml in plasma ([2]; 200 mg bid, doses approximately 12 hours apart): 2.4 +/ ng/ml; Trough Pk levels ng/ml in plasma ([2]; 400 mg bid, doses approximately 12 hours apart): 5.2 +/ ng/ml; Trough Pk levels ng/ml in plasma ([2]; 600 mg bid, doses approximately 12 hours apart): 13.1 +/ ng/ml; Trough Pk levels ng/ml in plasma ([2]; 800 mg bid, doses approximately 12 hours apart): 19.8 +/ ng/ml; washout trough concentration as share of the trough concentration at 800 mg b.i.d. ([2]; 2 weeks post 800 mg b.i.d.): about 1.5%; concentration at 12 h ([2]; human, plasma, 800 mg b.i.d., doses approximately 12 hours apart, read-out: Trough Pk levels ng/ml in plasma): 19.8 ng/mL; concentration at 2 weeks ([2]; human, plasma, 800 mg b.i.d., washout, 2 weeks post 800 mg bid, read-out: Trough Pk levels ng/ml in plasma): 0.3 ng/mL; Trough Pk levels ng/ml in plasma ([2]; washout, 2 weeks post 800 mg bid): 0.3 +/ ng/ml; plasma concentration maintained for over 6 hours ([3]; each single dose at or above 400 mg): greater than 13 ng/mL; plasma level maintained for at least 6 hours ([3]; high dosing, bolus such as 1,000 mg): above 13 ng/mL; plasma concentration for up to about 6 hours ([3]; high single dose (about 800 mg to 1200 mg), see FIG. 1): over 40 ng/mL; Cmax ([3]; human, plasma, oral, 1000 mg, bolus such as 1,000 mg, read-out: Cmax concentration in plasma): > 300 ng/mL; concentration at 8 h ([3]; human, plasma, oral, 1000 mg, bolus such as 1,000 mg, read-out: plasma concentration in about 8 hours): < 20 ng/mL; Cmax ([3]; human, plasma, oral, each single dose at or above 400 mg, plasma, read-out: Cmax): > 50 ng/mL; Cmax ([3]; human, plasma, oral, high single dose (about 800 mg to 1200 mg), see FIG. 1, read-out: Cmax): ≤ 350 ng/mL; concentration at 6 h ([3]; human, plasma, oral, single dose at 800 mg or 1,000 mg): ~50 ng/mL; concentration at 8 h ([3]; human, plasma, oral, single dose at 800 mg or 1,000 mg, read-out: plasma concentration at 8 hours): ≥ 15 ng/mL; shift in time of Cmax in the fed group versus fasted patients ([4]; fed versus fasted patients): about an hour later; uptake of budiodarone as evidenced by the Cmax values, fed versus fasting ([4]; same dosing of budiodarone, fed versus fasting patients): increased; effective plasma level within 60 min, maintained for up to 6 hours ([4]; single oral dose of 400-1,000 mg, whether or not taken with food): > 50 ng/mL; half-life compared with amiodarone [5]: much shorter half-life than amiodarone; effect on QT interval ([5]; while reducing episodes of long-duration AFib): without a significant increase in the QT interval

— patent US12257228B2, “Cardioversion methods using budiodarone” (Xyra, LLC, priority 2023, dated 2025)
